Assay results from article PMC12027149 (International Journal of Molecular Sciences, 2025).
pIC50: −log10 of the molar value. Where “and” joins values, the source holds several entries; their conditions need not be identical. Equal values may be shown once.

Columns and labels:
[1] = target: T1, Acetylcholinesterase (AChE, EC 3.1.1.7) (Electrophorus electricus, UniProt O42275); experiment: Acetylcholinesterase inhibition, modified Ellman colorimetric method; format: biochemical; conditions: for Hillslope: AChE inhibition dose–response curve; for LOAEL: AChE inhibition; for LOAEL / pIC50: Ellman assay; for pIC50: IC50, AChE inhibition, 0.03–2 mM, Hill fit
T1 construct: purchased Sigma-Aldrich
T1 sequence (O42275 24-633): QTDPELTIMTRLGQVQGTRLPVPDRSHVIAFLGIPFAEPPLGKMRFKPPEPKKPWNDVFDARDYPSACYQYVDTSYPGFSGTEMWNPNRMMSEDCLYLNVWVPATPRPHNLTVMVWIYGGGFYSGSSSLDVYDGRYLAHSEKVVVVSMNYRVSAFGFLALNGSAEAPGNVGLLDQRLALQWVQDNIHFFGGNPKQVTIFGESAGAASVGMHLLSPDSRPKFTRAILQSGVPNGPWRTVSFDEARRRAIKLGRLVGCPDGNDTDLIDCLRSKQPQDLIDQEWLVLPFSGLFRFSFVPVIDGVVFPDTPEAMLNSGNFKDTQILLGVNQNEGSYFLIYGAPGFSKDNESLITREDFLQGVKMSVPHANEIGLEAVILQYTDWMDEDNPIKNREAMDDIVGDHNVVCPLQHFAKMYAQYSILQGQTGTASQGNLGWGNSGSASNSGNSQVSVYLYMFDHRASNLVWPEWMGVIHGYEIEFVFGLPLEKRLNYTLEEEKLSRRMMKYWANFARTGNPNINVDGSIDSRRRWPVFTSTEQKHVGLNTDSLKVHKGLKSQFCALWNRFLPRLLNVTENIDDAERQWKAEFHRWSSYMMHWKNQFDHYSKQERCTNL
Protocol: Acetylcholinesterase (AChE, EC 3.1.1.7) enzymatic activity was assessed using a modified version of Ellman’s colorimetric method, as described by Falé et al.. In this assay, a mixture of 325 μL of 50 mM Tris-HCl buffer (pH 8), 100 μL of a cathinone solution, and 25 μL of AChE (0.1 U/mL in 50 mM Tris–HCl buffer pH 8) were incubated. After a 15 min incubation period, 75 μL of AChI (0.33 mg/mL) was added to 475 μL of DTNB (dithiobis (2-nitrobenzoic acid)) (1.2 mg/mL in Tris–HCl buffer (pH 8) containing 0.1 M NaCl and 0.02 M MgCl2). A control reaction, representing 100% activity, was performed using the same volume of water instead of the cathinone solution. The initial velocity of the enzymatic reaction was measured at 405 nm for 5 min, with all assays carried out in duplicate. The percentage of AChE activity inhibition for different concentrations of cathinones [0.03–2 mM] was determined as the ratio of the initial velocity in the cathinone presence to the initial velocity of the control reaction. Experimental results were fitted to Hill’s sigmoidal dose–response non-linear regression model to determine IC50 values (cathinone concentration showing 50% inhibition), along with their confidence interval at the 95% confidence level ([CI]). The Hill slope coefficients that provide the steepest value of the slope of the dose–response curve and the minimum observable adverse effect concentration (LOAEL) for all cathinones were also determined.

SH-SY5Y cells [2] = experiment: Intracellular reactive oxygen species levels (H2-DCFDA probe); format: cell-based, human; conditions: 6 h treatment at LC50
Protocol: Reactive oxygen species (ROS) production was determined by evaluating ROS levels after exposure to cathinones at concentrations corresponding to their LC50 for 6 h. SH-SY5Y cells were washed with 1× PBS and incubated with 100 µL of 2′,7′-dichlorodihydrofluorescein diacetate (H2-DCFDA) (20 µM) in medium without FBS, for 60 min at 37 °C in the dark. Subsequently, the cells were washed with 1× PBS (1×), and the cells were maintained for 30 min at room temperature in 100 µL of PBS. After this time, ROS levels were determined by measuring fluorescence (excitation wavelength (λ): 495 nm; emission λ: 527 nm). Ascorbic acid (A.A) (100 µg/mL) served as the negative control and, hydrogen peroxide (H2O2) (200 µM) was used as the positive control. Results were expressed as a percentage relative to the control. All data were derived from at least three independent experiments (n = 3) and presented as mean ± standard error of the mean (SEM).

[3] = MTT cytotoxicity assay on differentiated SH-SY5Y cells; format: cell-based, human; conditions: human, differentiated SH-SY5Y, 0.05–5 mM, MTT reduction assay, Hill fit, read-out: LC50
Protocol: (§1) The SH–SY5Y cell line (DSMZ code: ACC 209) was supplied by the German Collection of Microorganisms and the Cell Culture GmbH (DSMZ) biobank and was cultured according to the supplier’s information. Cells were grown in DMEM:F12 (Dulbecco’s Modified Eagle’s Medium/F12), supplemented with 10% fetal bovine serum (FBS) and 1% antibiotic–antimycotic in a humidified atmosphere with 5% CO2 at 37 °C. Subculture was performed according to biobank instructions when the cultures reached 80–85% of confluence.
(§2) SH-SY5Y cells were trypsinized (trypsin/EDTA; 0.25%) and the cell suspension was seeded in 96-well plates at a density of 2 × 10^4 cells/well and incubated until reaching 80-85% confluence. Cells were differentiated to obtain a dopaminergic neuronal phenotype according to Ferreira et al. with slight modifications (Figure 10). To ensure reproducibility and optimal neuronal differentiation, cells were used between passages (15–25). Briefly, cells were seeded in complete DMEM:F12 medium containing 10 µM retinoic acid (RA) and 2.5% fetal bovine serum (FBS) and maintained for 4 days, with the medium changed on day 2. After this time, the medium was replaced by DMEM:F12 supplemented with 10 µM RA, 80 nM 12-O-tetradecanoylphorbol-13-acetate (TPA), and 2.5% FBS, and the cells were maintained for an additional 4 days (with the medium changed at day 6). The cytotoxicity assay was performed on day 8.
(§3) The SH-SY5Y cells’ viability was evaluated after exposure for 24 h to […]. The 3-(4,5-dimethylthiazol-2-yl) − 2,5-diphenyltetrazolium bromide (MTT) colorimetric assay was performed following the methodology described by Joana Silva et al.. The experimental dose–response results were fitted to the Hill’s sigmoidal non-linear regression model. For each cathinone, the LC50 values (cathinone concentration showing 50% lethality) and their confidence interval at the 95% confidence level ([CI]) were determined. The Hill slope, also known as the Hill coefficient, which describes the steepness of a dose–response curve, and the minimum observable adverse effect concentration (LOAEL) were also determined for all cathinones.

[4] = test system: differentiated SH-SY5Y cells; experiment: as above; format: cell-based, human; conditions: lowest observed adverse effect level, differentiated SH-SY5Y, 24 h, MTT
Protocol: as §1, §2, §3

SH-SY5Y cells [5] = experiment: Mitochondrial membrane potential (JC-1 probe); format: cell-based, human; conditions: 6 h treatment at LC50, JC-1
Protocol: Mitochondrial membrane potential (MMP) was estimated by using the JC-1 fluorescent probe (Molecular Probes, Eugene, OR, USA) as described in Silva et al., 2022 [65]. The formation of JC-1 aggregates (excitation λ: 490 nm; emission λ: 590 nm) and monomers (excitation λ: 490 nm; emission λ: 530 nm) was measured for 30 min using a plate reader (Bio-Tek Synergy plate reader, Bedfordshire, UK). Changes in MMP were calculated as the ratio between JC-1 monomers and aggregates and expressed as a percentage of the control. An FCCP (2.5 µM) and oligomycin A (1 mg/mL) conjugate solution was used as the positive control. All data were obtained from at least three independent experiments (n = 3) and were presented as mean ± standard error of the mean (SEM).

Row | SMILES | Hillslope [1] | LOAEL [1] [mM] | pIC50 [1] | inhibition at 2000 µM ([1]; highest tested concentration of 2 mM) [%] | increase in ROS production compared to the vehicle (SH-SY5Y cells [2]) [%] | CC50 at 24 h [3] [mM] | LOAEL [4] | MMP depolarization (SH-SY5Y cells [5]) | maximum inhibition of AChE among the tested concentrations ([1]; 0.03 to 2 mM) [%] | significant increase in ROS production compared to vehicle (SH-SY5Y cells [2])
1 | CC(NC(C)(C)C)C(=O)c1ccc(Cl)cc1 (racemic) [4-Cl-TBC (20), (R,S)-2-(tert-butylamino)-1-(4-chlorophenyl)propan-1-one] | 2.7 | 0.500 | ~2.70 | 48 | 30 | 1.3 | 0.5 mM |  |  | 
2 | CCN(CC)C(C)C(=O)c1cccc(Cl)c1 (racemic) [3-Cl-DEC (15), (R,S)-1-(3-chlorophenyl)-2-(diethylamino)propan-1-one] | 0.9 | 0.063 | 3.52 |  |  | 1.2 | 1 mM and 1.0 mM | more pronounced MMP depolarization than the other cathinones | 87 | exception
